Blank lines part the entries; values can stand above or below the compound they belong to.
What was measured:
[1] = Absorbance and fluorescence emission spectra (SpectraMax M2); format: physicochemical; conditions: for λmax Absorp. (nm) / λmax Emission (nm): MKCA compound library; for λmax Absorp. (nm) / λmax Abs. (nm): absorbance maximum; for λmax Emission (nm) / λmax Em. (nm): fluorescence emission maximum; for λmax Abs. (nm) / λmax Em. (nm): MKAC compound library
How it was run: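 Absorbance and emission maxima measured on a SpectraMax M2 spectrophotometer, which also gave quantum yield data; analysis in GraphPrism.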

[2] = Quantum yield measurements versus Acridine Yellow in EtOH; format: physicochemical; conditions: for φ (quantum yield): excitation 460 nm; for φ (%): quantum yield
How it was run: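 Fluorescence quantum yield is relative to Acridine Yellow in EtOH (Φ 0.47), with excitation at 460 nm. Integrated emission at 510–700 nm was corrected for absorbance at the excitation wavelength and for solvent refractive index.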

Compound: CCCc1cn(-c2ccc3n2[B-](F)(F)[N+]2=C(N4CCCCC4)C=CC2=C3c2ccc(NC(=O)CCl)cc2)nn1 [BDCCA-48]
λmax Absorp. ([1]; BDCCA library, Table 4): 466 nm
λmax Emission ([1]; BDCCA library, Table 4): 569 nm
φ (quantum yield) ([2]; BDCCA library, Table 4): 1.4%

Compound: O=C(CCl)Nc1ccc(C2=C3C=CC(N4CCCCC4)=[N+]3[B-](F)(F)n3c2ccc3-n2cc(-c3ccc(-c4ccccc4)cc3)nn2)cc1 [BDCCA-23]
λmax Absorp. ([1]; BDCCA library, Table 4): 464 nm
λmax Emission ([1]; BDCCA library, Table 4): 575 nm
φ (quantum yield) ([2]; BDCCA library, Table 4): 1.2%

Compound: CC(=O)Nc1ccc(C2=C3C=CC(NCc4ccccc4C)=[N+]3[B-](F)(F)n3c2ccc3-n2cc(C3CCCC3)nn2)cc1 [MKAC101-5]
λmax Abs. (nm) [1]: 466 nm
λmax Em. (nm) [1]: 563 nm
φ (%) ([2]; MKAC compound library): 23.69%

Compound: Nc1ccc(C2=C3C=CC(NCc4cc(F)cc(F)c4)=[N+]3[B-](F)(F)n3c2ccc3-n2cc(CO)nn2)cc1 [MK412-70]
λmax Absorp. ([1]; MK library, Table 5): 470 nm
λmax Emission ([1]; MK library, Table 5): 562 nm
φ (quantum yield) ([2]; MK library, Table 5): 1.89%

Compound: CCOc1ccccc1CNC1=[N+]2C(=C(c3ccc(N)cc3)c3ccc(-n4cc(C5CCCC5)nn4)n3[B-]2(F)F)C=C1 [MK103-5]
λmax Absorp. ([1]; MK library, Table 5): 473 nm
λmax Emission ([1]; MK library, Table 5): 564 nm
φ (quantum yield) ([2]; MK library, Table 5): 2.01%

Compound: CCOc1ccccc1CNC1=[N+]2C(=C(c3ccc(N)cc3)c3ccc(-n4cc(CC5CCCCC5)nn4)n3[B-]2(F)F)C=C1 [MK103-8]
λmax Absorp. ([1]; MK library, Table 5): 473 nm
λmax Emission ([1]; MK library, Table 5): 563 nm
φ (quantum yield) ([2]; MK library, Table 5): 1.64%

Compound: CCCCCc1ccc(-c2cn(-c3ccc4n3[B-](F)(F)[N+]3=C(N5CCCCC5)C=CC3=C4c3ccc(N)cc3)nn2)cc1 [BDC-29]
λmax Absorp. ([1]; BDC library, Table 2): 471 nm
λmax Emission ([1]; BDC library, Table 2): 586 nm
φ (quantum yield) ([2]; BDC library, Table 2): 0.23%

Compound: Nc1ccc(C2=C3C=CC(NCc4cc(F)cc(F)c4)=[N+]3[B-](F)(F)n3c2ccc3-n2cc(CC3CCCCC3)nn2)cc1 [MK412-8]
λmax Absorp. ([1]; MK library, Table 5): 476 nm
λmax Emission ([1]; MK library, Table 5): 563 nm
φ (quantum yield) ([2]; MK library, Table 5): 0.56%

Compound: CCOc1ccccc1CNC1=[N+]2C(=C(c3ccc(NC(C)=O)cc3)c3ccc(-n4cc(CC(C)C)nn4)n3[B-]2(F)F)C=C1 [MKAC103-43]
λmax Abs. (nm) [1]: 465 nm
λmax Em. (nm) [1]: 560 nm
φ (%) ([2]; MKAC compound library): 22.79%

Compound: CCCCCC(O)c1cn(-c2ccc3n2[B-](F)(F)[N+]2=C(N4CCCC4)C=CC2=C3c2ccc(N)cc2)nn1 (stereo not drawn) [MK215-69]
λmax Absorp. ([1]; MK library, Table 5): 470 nm
λmax Emission ([1]; MK library, Table 5): 580 nm
φ (quantum yield) ([2]; MK library, Table 5): 0.33%

Compound: CCCCc1cn(-c2ccc3n2[B-](F)(F)[N+]2=C(N4CCCCC4)C=CC2=C3c2ccc(N)cc2)nn1 [BDC-42]
λmax Absorp. ([1]; BDC library, Table 2): 473 nm
λmax Emission ([1]; BDC library, Table 2): 584 nm
φ (quantum yield) ([2]; BDC library, Table 2): 0.19%

Compound: CC(=O)Nc1ccc(C2=C3C=CC(N4CCCC4)=[N+]3[B-](F)(F)n3c2ccc3-n2cc(CC(C)C)nn2)cc1 [MKAC215-43]
λmax Abs. (nm) [1]: 461 nm
λmax Em. (nm) [1]: 565 nm
φ (%) ([2]; MKAC compound library): 1.83%

Compound: CC(=O)Nc1ccc(C2=C3C=CC(N(C)Cc4ccccc4)=[N+]3[B-](F)(F)n3c2ccc3-n2cc(CC(C)C)nn2)cc1 [MKAC195-43]
λmax Abs. (nm) [1]: 466 nm
λmax Em. (nm) [1]: 580 nm
φ (%) ([2]; MKAC compound library): 3.48%

Compound: CC(=O)Nc1ccc(C2=C3C=CC(N4CCCCC4)=[N+]3[B-](F)(F)n3c2ccc3-n2cc(CN(C)C)nn2)cc1 [BDCAC-2]
λmax Absorp. ([1]; BDCAC library, Table 3): 466 nm
λmax Emission ([1]; BDCAC library, Table 3): 591 nm
φ (quantum yield) ([2]; BDCAC library, Table 3): 0.8%

Next, values leading:

λmax Absorp. (nm) [1]: 469 nm
λmax Emission (nm) [1]: 586 nm
φ (%) ([2]; MKCA compound library): 3.38%
Compound: CCCCCC(O)c1cn(-c2ccc3n2[B-](F)(F)[N+]2=C(N4CCc5ccccc5C4)C=CC2=C3c2ccc(NC(=O)CCl)cc2)nn1 (stereo not drawn) [MKCA66-69]

λmax Absorp. (nm) [1]: 463 nm
λmax Emission (nm) [1]: 560 nm
φ (%) ([2]; MKCA compound library): 26.25%
Compound: CN(Cc1ccccc1)Cc1cn(-c2ccc3n2[B-](F)(F)[N+]2=C(NCc4cc(F)cc(F)c4)C=CC2=C3c2ccc(NC(=O)CCl)cc2)nn1 [MKCA412-18]

λmax Absorp. (nm) [1]: 468 nm
λmax Emission (nm) [1]: 581 nm
φ (%) ([2]; MKCA compound library): 4.60%
Compound: CC1CN(C2=[N+]3C(=C(c4ccc(NC(=O)CCl)cc4)c4ccc(-n5cc(C6CCCC6)nn5)n4[B-]3(F)F)C=C2)CC(C)O1 (stereo not drawn) [MKCA20-5]

λmax Absorp. (nm) [1]: 466 nm
λmax Emission (nm) [1]: 562 nm
φ (%) ([2]; MKCA compound library): 21.93%
Compound: CCCCCC(O)c1cn(-c2ccc3n2[B-](F)(F)[N+]2=C(NCc4ccccc4C)C=CC2=C3c2ccc(NC(=O)CCl)cc2)nn1 (stereo not drawn) [MKCA101-69]

λmax Absorp. (nm) [1]: 466 nm
λmax Emission (nm) [1]: 575 nm
φ (%) ([2]; MKCA compound library): 7.26%
Compound: CN(Cc1ccccc1)C1=[N+]2C(=C(c3ccc(NC(=O)CCl)cc3)c3ccc(-n4cc(C5CC5)nn4)n3[B-]2(F)F)C=C1 [MKCA195-4]

λmax Absorp. (nm) [1]: 463 nm
λmax Emission (nm) [1]: 562 nm
φ (%) ([2]; MKCA compound library): 33.37%
Compound: Cc1ccccc1CNC1=[N+]2C(=C(c3ccc(NC(=O)CCl)cc3)c3ccc(-n4cc(CCc5ccccc5)nn4)n3[B-]2(F)F)C=C1 [MKCA101-19]

— patent publication US9513294B2, “Megastokes amino-triazolyl-BODIPY compounds and applications to live neuron staining and human serum albumin FA1 drug site probing” (National University of Singapore, priority 2012, dated 2016)
